According to paper PMC12118597 (Science Advances, 2025):
“And” between values parts separate entries of the source, which are not always exact repeats. Identical values can stand only once. Like-named read-outs stand apart in the source and are kept apart here.

Experiments:
[1] = molecular target: T1, SARS-CoV-2 NSP3 macrodomain (Mac1) (Severe acute respiratory syndrome coronavirus 2, UniProt P0DTD1); test: biochemical; type: binding; conditions: for detectable binding at 200 μM in the HTRF assay: result in words
[2] = molecular target: T1, SARS-CoV-2 NSP3 macrodomain (Mac1); type: binding; conditions: for 2*(1-BDC) (%): occupancy estimate from PanDDA; for PanDDA run, overall: Hit / PanDDA run, DMSO background map: 1-BDC / PanDDA run, DMSO background map: Hit / PanDDA run, overall: Modeled: crystal soak 10 mM; for PanDDA run, overall: Hit / PanDDA run, overall: Modeled: P43 crystal form; for Total number of conformations: ligand conformations modeled in the crystal structure
[3] = HTRF binding curve, SARS-CoV-2 Mac1
[4] = crystal soak concentration 20 mM, DMSO background map
[5] = crystal soak concentration 20 mM, P43 crystals
[6] = SARS CoV-2 macrodomain HTRF assay, dose-response
[7] = PanDDA background density correction factor
[8] = ligand-bound crystal structure obtained (TRUE)
[9] = refined crystallographic occupancy
[10] = site occupied in X-ray crystal structure
[11] = TRUE = crystal structure with ligand obtained
[12] = site of ligand in X-ray crystal structure
[13] = SARS CoV-2 macrodomain HTRF assay, single dose concentration 200 μM, read-out: Average % competition
[14] = compound at 200 μM, mean of three to four technical replicates, read-out: % competition at 200 μM (preliminary HTRF screen)

Structure (SMILES) | Hill slope [1, 3] | 2*(1-BDC) (%) [2] | Hill slope [1, 6] | Occupancy difference (refined_occupancy - 2*(1-BDC)) [2] | 1-BDC [2, 7] | PanDDA run, overall: Hit [2] | PanDDA run, DMSO background map: 1-BDC ([2]; DMSO background map) | PanDDA run, DMSO background map: Hit ([2]; DMSO background map) | Total number of conformations [2] | X-ray crystal structure [2, 8] | Refined ligand occupancy (%) [2, 9] | Binding site [2, 10] | X-ray crystal structure [2, 11] | PanDDA run, overall: Modeled [2] | Binding site [2, 12] | other results
O=C1CCc2cc(C(=O)N3CC(C(=O)O)CCC34CCCC4)c(F)cc2N1 (centres unmarked) [AVI-338] | 1.5 | 14% |  |  |  |  |  |  |  |  |  |  |  |  |  | Hill slope ([1]; dose-response): 1.5; 1-BDC ([2]; PanDDA background density correction, 1-BDC): 0.07; X-ray crystal structure ([2]; TRUE = ligand-bound crystal structure obtained (PDB code given)): TRUE; Hit (PanDDA run, DMSO background map) [2, 4]: TRUE; Modeled (PanDDA run, DMSO background map) [2, 4]: TRUE; 1-BDC (PanDDA run, DMSO background map) ([2]; crystal soak concentration 20 mM, DMSO background map, event 1): 0.07; Hit (PanDDA run, overall) [2, 5]: TRUE; Modeled (PanDDA run, overall) [2, 5]: TRUE; Refined ligand occupancy (%) ([2]; crystallographic refinement): 14%; Binding site ([2]; site of Mac1 occupied in the X-ray crystal structure (Adenosine or Distal)): Adenosine
OC[C@@H]1C[C@H](O)CN1c1ncnc2[nH]ccc12 [AVI-610] | 1.2 | 42% | 1.2 | 18 | 0.21 | TRUE | 0.34 and 0.31 and 0.21 and 0.26 | TRUE | 1 | TRUE | 60% | Adenosine |  |  |  | 
OCC(Nc1ncnc2[nH]ccc12)C1CC1 (centres unmarked) [AVI-3651] | 1.2 | 36% | 1.2 | 0 | 0.18 | TRUE | 0.18 | TRUE | 1 |  | 36% |  | TRUE | TRUE | Adenosine | 
O[C@H]1CC[C@@H]2CCN(c3ncnc4[nH]ccc34)[C@@H]21 [AVI-3664] | 1.2 | 32% | 1.2 | 0 | 0.16 | TRUE | 0.16 | TRUE | 1 | TRUE | 32% | Adenosine |  | TRUE |  | 
CCC(O)[C@H]1CCCN1c1ncnc2[nH]ccc12 (some centres unmarked) [AVI-3666] | 1.3 | 60% | 1.3 | 10 | 0.3 | TRUE | 0.3 | TRUE | 1 | TRUE | 70% | Adenosine |  | TRUE |  | 
O=C(O)C(F)(F)F.OCC1(Nc2ncnc3[nH]ccc23)CCC1 [AVI-3670] | 1.2 | 36% | 1.2 | 0 | 0.18 | TRUE | 0.18 | TRUE | 2 |  | 36% |  | TRUE | TRUE | Adenosine | 
CN(C)CC(CO)Nc1ncnc2[nH]ccc12 (centres unmarked) [AVI-3671] |  | 34% |  | 0 | 0.17 | TRUE | 0.17 | TRUE | 1 |  | 34% |  | TRUE | TRUE | Adenosine | detectable binding at 200 μM in the HTRF assay [1]: neither had detectable binding
OCC(CN1CCCCC1)Nc1ncnc2[nH]ccc12 (centres unmarked) [AVI-3677] |  | 42% |  | 0 | 0.21 | TRUE | 0.21 | TRUE | 1 |  | 42% |  | TRUE | TRUE | Adenosine | detectable binding at 200 μM in the HTRF assay [1]: neither had detectable binding
O=C(O)C(F)(F)F.OCC1(Nc2ncnc3[nH]ccc23)CCCC1 [AVI-3692] | 1.3 | 44% | 1.3 | -24 | 0.22 | TRUE | 0.22 | TRUE | 1 |  | 20% |  | TRUE | TRUE | Adenosine | 
CCC(CC)(CO)Nc1ncnc2[nH]ccc12 [AVI-3695] | 1.3 | 24% | 1.3 | 6 | 0.12 | TRUE | 0.12 | TRUE | 2 |  | 30% |  | TRUE | TRUE | Adenosine | 
CCC(C)(CO)Nc1ncnc2[nH]ccc12 (centres unmarked) [AVI-3697] | 1.2 | 32% | 1.2 | 18 | 0.16 | TRUE | 0.16 | TRUE | 1 |  | 50% |  | TRUE | TRUE | Adenosine | 
CC1(C)C[C@@H](CO)N(c2ncnc3[nH]ccc23)C1.O=C(O)C(F)(F)F [AVI-3704] | 1.1 | 66% | 1.1 | 0 | 0.33 | TRUE | 0.33 | TRUE | 1 | TRUE | 66% | Adenosine |  |  |  | inhibition at 200 µM [1, 13]: 90%; inhibition at 200 µM [1, 14]: 90%
OCC1CC2(CCCC2)CN1c1ncnc2[nH]ccc12 (centres unmarked) [AVI-3708] | 1.1 | 64% | 1.1 | 0 | 0.32 | TRUE | 0.32 | TRUE | 1 | TRUE | 64% | Adenosine |  |  |  | inhibition at 200 µM [1, 13]: 90%; inhibition at 200 µM [1, 14]: 90%
